Experimental data published in US20260318831A1 (University of Cincinnati, priority 2023, published 2026).

Experiments:
[1] = Fluorescence emission of PyQPMe in buffer solutions with different pH; format: physicochemical
Text: In some aspects, the fluorescence of the probe changes as the pH of an endolysosome changes, such as between a pH range of about 8.0 to about 2.0. With the designed probe PyQPMe in hand, its UV-visible absorption was screened in aqueous buffers with a pH range of 8.0 to 4.0. […] Simultaneously, a new absorption maximum at 447 nm (ε=27,264 M^−1 cm^−1) rises with its tail exceeding 600 nm in pH 4.0 buffer solution. […] In addition, the fluorescence intensities of PyQPMe used for different imaging channels of the microscope were compared, where the wavelengths of 500 nm and 645 nm represent the green and red channels, respectively. When the buffer solution is much more acidic, the fluorescence intensity ratio of I645 nm/I500 nm is higher than 1 (FIG. 2C), indicating red color dominates the fluorescence of PyQPMe. Conversely, with increasing the pH value, green fluorescence light is becoming the predominant color for imaging.
Next, the effect of potential biochemical species on the fluorescence intensity of PyQPMe in both pH 3.0 and 8.2 buffer solutions was investigated. […] Fluorescence spectra of PyQPMe in various solvents with different polarities were also obtained. […] Furthermore, the photostability of PyQPMe was investigated under different pH conditions. […] Taken together, the above photophysical results identify that PyQPMe is a pH-sensitive probe, well suited for studying endolysosome dynamics via high-resolution imaging techniques.
Phosphate buffer solution. A series of standard pH buffer solutions were prepared by mixing 0.2 M Na2HPO4·7H2O, 0.2 M KH2PO4, and 0.2 M H3PO4 with varied volume ratios, and the pH values were measured by using a Mettler Toledo pH-meter.
Absorption and emission measurements. 3.0 mL phosphate buffer solution and 6.44 μL probe stock solution (4.66 mM) were mixed well, and an appropriate portion of the solution was transferred to a quartz cell with 1 cm optical length to collect the absorption spectra on an Agilent Cary 453 spectrophotometer. The fluorescence spectra were recorded on a HORIBA Fluorolog QM spectrofluorometer.
Fluorescence reversibility of PyQPMe. The pH of a PyQPMe solution between pH 3.0 and pH 8.5 was adjusted back and forth by adding 2.0 M KOH or 3.0 M HCl, which was monitored by a Mettler Toledo pH meter.

[2] = tested on: HeLa cells; assay: CCK-8 cell viability and cytotoxicity assay; format: cell-based; conditions: within 24 h incubation, 0~10 μM
Description: In some aspects, the probes of the present disclosure can be administered to living cells, either in vitro or in vivo. To take advantage of the absorption and emission spectra of PyQPMe, this probe was administered in high-resolution microscopy for living cells. The toxicity of PyQPMe was examined at first before characterizing its imaging properties. Cell Counting Kit-8 (CCK-8) was used to investigate the viability of HeLa cells stained with PyQPMe. […] Next, PyQPMe was characterized by Leica Stellaris Confocal Microscope in the LIGHTNING module for high-resolution imaging. […] The signal tended to be endolysosomes because endolysosomes have a low pH range from 4.7 to 6.3. […] Since low temperatures can inhibit endocytosis, experiments at a lower temperature were performed.
Cell viability and cytotoxicity assay. […] The viability was determined by adding 10 μL reagent from a cell counting kit-8 (CCK-8) (Dojindo Molecular Technologies, Inc.) and incubating at 37° C. for 1 h. CCK-8 solution was added to each well and the OD value for each well was read at wavelength 490 nm on a microplate reader (BioTek Instruments, Inc., USA). The interference of absorbance from PyQPMe at 490 nm was minimal compared to the CCK-8 reagent during measurement.

maximum emission peak ([1]; 405 nm excitation, neutral solution): 510 nm
new emission peak ([1]; 405 nm excitation, pH decreased from 8.0 to 4.0): 650 nm
Stokes shift ([1]; acid solution): greater than 200 nm
reversibility of emission spectra ([1]; between pH 8.5 and pH 3.0): excellent reversibility
cut-off pH for the red to green fluorescence intensity ratio ([1]; from FIG. 2C): 5-6
fluorescence intensity ratio I645 nm/I500 nm ([1]; much more acidic buffer solution): higher than 1
quantum yield ([1]; pH 4.0 buffer solution): 0.23%
red shift of emission ([1]; pH decreased from 8.0 to 4.0): 140 nm
emission intensity ratio I510 nm/I650 nm against pH ([1]; pH titration curve): decent linear relationship
SMILES: CN1CCN(c2ccc(/C=C/c3ccc4cc(-c5ccncc5)ccc4[n+]3C)cc2)CC1 [PyQPMe, (E)-1-methyl-2-(4-(4-methylpiperazin-1-yl)styryl)-6-(pyridin-4-yl)quinolin-1-ium]
fluorescence over pH window ([1]; pH 8.0 to 4.0): remains fluorescent within the entire pH window
effect of solvent polarity on fluorescence ([1]; various solvents with different polarities): polarity has no effect on the fluorescence
effect on viability of HeLa cells [2]: no effects on the viability of HeLa cells
